Measured values as given in PubChem BioAssay (NCI).
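Compound exposure: 48 hours, 5 concentrations, 96-well plates. At the GI50, growth is halved. TGI: concentration producing complete growth inhibition.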

What was measured:
Test in all cases: NCI anticancer screen, dose series, 48 h
COLO 205 colon = system: COLO 205 colon
SNB-19 CNS = system: SNB-19 CNS
CAKI-1 renal = system: CAKI-1 renal
OVCAR-5 ovarian = system: OVCAR-5 ovarian
MALME-3M melanoma = system: MALME-3M melanoma
SF-295 CNS = system: SF-295 CNS
SF-268 CNS = system: SF-268 CNS
RXF 393 renal = system: RXF 393 renal
M14 melanoma = system: M14 melanoma
DU-145 prostate = system: DU-145 prostate
SNB-75 CNS = system: SNB-75 CNS
SW-620 colon = system: SW-620 colon
SF-539 CNS = system: SF-539 CNS
ACHN renal = system: ACHN renal
A498 renal = system: A498 renal
RPMI-8226 leukemia = system: RPMI-8226 leukemia
TK-10 renal = system: TK-10 renal
IGROV1 ovarian = system: IGROV1 ovarian
NCI-H23 lung = system: NCI-H23 lung
HOP-92 NSCLC = system: HOP-92 NSCLC
HS 578T breast = system: HS 578T breast
EKVX NSCLC = system: EKVX NSCLC
UO-31 renal = system: UO-31 renal
HT29 colon = system: HT29 colon
UACC-257 melanoma = system: UACC-257 melanoma
NCI/ADR-RES ovarian = system: NCI/ADR-RES ovarian
HCT-15 colon = system: HCT-15 colon
UACC-62 melanoma = system: UACC-62 melanoma
SK-MEL-2 melanoma = system: SK-MEL-2 melanoma
OVCAR-8 ovarian = system: OVCAR-8 ovarian

CC12OOC(C)(OO1)C2CCC(=O)NCCCNc1ccnc2cc(Cl)ccc12 (centres undefined)
TGI (COLO 205 colon): 7.68 µM | GI50 (SNB-19 CNS): > 20 µM | TGI (SNB-19 CNS): > 20 µM | GI50 (CAKI-1 renal): 3.31 µM | TGI (CAKI-1 renal): 6.07 µM | GI50 (OVCAR-5 ovarian): > 20 µM | TGI (OVCAR-5 ovarian): > 20 µM | GI50 (MALME-3M melanoma): 3.35 µM | TGI (MALME-3M melanoma): 6.31 µM | GI50 (SF-295 CNS): > 20 µM | TGI (SF-295 CNS): > 20 µM | GI50 (SF-268 CNS): > 20 µM | TGI (SF-268 CNS): > 20 µM | GI50 (RXF 393 renal): 3.69 µM | TGI (RXF 393 renal): 9.56 µM | GI50 (M14 melanoma): 3.66 µM | TGI (M14 melanoma): 7.4 µM | GI50 (DU-145 prostate): 3.58 µM | TGI (DU-145 prostate): 6.52 µM | GI50 (SNB-75 CNS): > 20 µM | TGI (SNB-75 CNS): > 20 µM | GI50 (SW-620 colon): 4.3 µM | TGI (SW-620 colon): > 20 µM | GI50 (SF-539 CNS): 11.3 µM | TGI (SF-539 CNS): > 20 µM | GI50 (ACHN renal): 3.45 µM | TGI (ACHN renal): 6.22 µM | GI50 (A498 renal): > 20 µM | TGI (A498 renal): > 20 µM | GI50 (RPMI-8226 leukemia): 9.51 µM | TGI (RPMI-8226 leukemia): > 20 µM | GI50 (TK-10 renal): 4.62 µM | TGI (TK-10 renal): 14.5 µM | GI50 (IGROV1 ovarian): 7.07 µM | TGI (IGROV1 ovarian): > 20 µM | GI50 (NCI-H23 lung): > 20 µM | TGI (NCI-H23 lung): > 20 µM | GI50 (HOP-92 NSCLC): 3.34 µM | TGI (HOP-92 NSCLC): 6.87 µM | GI50 (HS 578T breast): > 20 µM | TGI (HS 578T breast): > 20 µM | GI50 (EKVX NSCLC): 3.8 µM | TGI (EKVX NSCLC): 7.99 µM | GI50 (UO-31 renal): 3.1 µM | TGI (UO-31 renal): 5.78 µM | GI50 (HT29 colon): 3.86 µM | TGI (HT29 colon): 7.47 µM | GI50 (UACC-257 melanoma): 9.4 µM | TGI (UACC-257 melanoma): > 20 µM | GI50 (NCI/ADR-RES ovarian): > 20 µM | TGI (NCI/ADR-RES ovarian): > 20 µM | GI50 (HCT-15 colon): 4.03 µM | TGI (HCT-15 colon): 9.17 µM | GI50 (UACC-62 melanoma): 12.6 µM | TGI (UACC-62 melanoma): > 20 µM | GI50 (SK-MEL-2 melanoma): > 20 µM | TGI (SK-MEL-2 melanoma): > 20 µM | GI50 (OVCAR-8 ovarian): > 20 µM | TGI (OVCAR-8 ovarian): > 20 µM
